Calls of active or inactive are those of the source. The calls are words filed in the database; no cut-off is given here.
How the values were obtained:
[1] = tested on: A549; assay: Antiproliferative activity against human A549 cells assessed as inhibition of cell growth incubated for 48 hrs by MTT assay; format: functional, cell-based; conditions: A549, 48 h
[2] = tested on: HCT-116; assay: Antiproliferative activity against human HCT-116 cells assessed as inhibition of cell growth incubated for 48 hrs by MTT assay; format: functional, cell-based; conditions: HCT-116, 48 h
[3] = tested on: MDA-MB-231; assay: Antiproliferative activity against human MDA-MB-231 cells assessed as inhibition of cell growth incubated for 48 hrs by MTT assay; format: functional, cell-based; conditions: MDA-MB-231, 48 h
[4] = tested on: HepG2; assay: Antiproliferative activity against human HepG2 cells assessed as inhibition of cell growth incubated for 48 hrs by MTT assay; format: functional, cell-based; conditions: HepG2, 48 h
[5] = tested on: HCT-116; assay: Induction of apoptosis in human HCT-116 cells assessed as total apoptotic cells at 20 nM incubated for 48 hrs by Annexin-V FITC/PI staining based flow cytometry analysis (reference value: 5.76 %); format: functional
[6] = tested on: HCT-116; assay: Induction of cell cycle arrest in human HCT-116 cells assessed as increase in G2/M phase cells at 120 nM measured after 48 hrs by propidium iodide/RNase staining based flow cytometry analysis (reference value: […] %); format: functional
[7] = tested on: HCT-116; assay: Inhibition of cell migration in human HCT-116 cells assessed as suppression of wound closure at 40 nM incubated for 48 hrs by wound healing assay relative to control; format: functional
[8] = tested on: HCT-116; assay: Induction of apoptosis in human HCT-116 cells assessed as total apoptotic cells at 80 nM incubated for 48 hrs by Annexin-V FITC/PI staining based flow cytometry analysis (reference value: 5.76 %); format: functional
[9] = tested on: HCT-116; assay: Induction of cell cycle arrest in human HCT-116 cells assessed as G1 phase cells at 120 nM measured after 48 hrs by propidium iodide/RNase staining based flow cytometry analysis (reference value: 61.51 %); format: functional
[10] = target: T1, Tubulin (Homo sapiens) (UniProt P68371+Q9H4B7+P0DPH7+P68366+Q13509+Q71U36+P04350+Q3ZCM7+P07437+P68363+Q9BQE3+Q6PEY2+Q13885+Q9BVA1+Q9BUF5); assay: Induction of microtubule disruption in human HCT-116 cells assessed as short microtubules at 20 to 60 nM incubated for 48 hrs by DAPI staining based confocal microscopic immunofluorescence analysis; format: cell-based; conditions: dose 20-60 nM
[11] = tested on: HCT-116; assay: Inhibition of cell migration in human HCT-116 cells assessed as suppression of wound closure at 10 nM incubated for 48 hrs by wound healing assay relative to control; format: functional
[12] = tested on: HCT-116; assay: Induction of apoptosis in human HCT-116 cells assessed as total apoptotic cells at 120 nM incubated for 48 hrs by Annexin-V FITC/PI staining based flow cytometry analysis (reference value: 5.76 %); format: functional
[13] = target: Tubulin (Sus scrofa, UniProt P02554+P02550); assay: (§1) Inhibition of pig brain tubulin polymerization in the presence of GTP by spectrophotometric analysis
[14] = target: Tubulin (Sus scrofa) (UniProt P02554+P02550); assay: as §1; conditions: DDE = dose-dependent effect
[15] = tested on: HCT-116; assay: Induction of cell cycle arrest in human HCT-116 cells assessed as increase in G2/M phase cells at 20 nM measured after 48 hrs by propidium iodide/RNase staining based flow cytometry analysis (reference value: […] %); format: functional
[16] = tested on: HCT-116; assay: Induction of cell cycle arrest in human HCT-116 cells assessed as increase in G2/M phase cells at 40 nM measured after 48 hrs by propidium iodide/RNase staining based flow cytometry analysis (reference value: […] %); format: functional
[17] = tested on: HCT-116; assay: Induction of cell cycle arrest in human HCT-116 cells assessed as S phase cells at 120 nM measured after 48 hrs by propidium iodide/RNase staining based flow cytometry analysis (reference value: […] %); format: functional
[18] = tested on: HCT-116; assay: Induction of cell cycle arrest in human HCT-116 cells assessed as S phase cells at 20 nM measured after 48 hrs by propidium iodide/RNase staining based flow cytometry analysis (reference value: […] %); format: functional
[19] = target: T1, Tubulin (Homo sapiens); assay: Induction of microtubule disruption in human HCT-116 cells assessed as disintegrated microtubules at 20 to 60 nM incubated for 48 hrs by DAPI staining based confocal microscopic immunofluorescence analysis; format: cell-based; conditions: dose 20-60 nM
[20] = tested on: HCT-116; assay: Inhibition of cell migration in human HCT-116 cells assessed as suppression of wound closure at 80 nM incubated for 48 hrs by wound healing assay relative to control; format: functional
[21] = tested on: HCT-116; assay: Induction of cell cycle arrest in human HCT-116 cells assessed as S phase cells at 40 nM measured after 48 hrs by propidium iodide/RNase staining based flow cytometry analysis (reference value: […] %); format: functional
[22] = tested on: HCT-116; assay: Induction of cell cycle arrest in human HCT-116 cells assessed as G1 phase cells at 20 nM measured after 48 hrs by propidium iodide/RNase staining based flow cytometry analysis (reference value: 61.51 %); format: functional
[23] = tested on: HCT-116; assay: Induction of cell cycle arrest in human HCT-116 cells assessed as increase in G2/M phase cells at 80 nM measured after 48 hrs by propidium iodide/RNase staining based flow cytometry analysis (reference value: […] %); format: functional
[24] = tested on: HCT-116; assay: Induction of apoptosis in human HCT-116 cells assessed as total apoptotic cells at 40 nM incubated for 48 hrs by Annexin-V FITC/PI staining based flow cytometry analysis (reference value: 5.76 %); format: functional
[25] = tested on: HCT-116; assay: Inhibition of cell migration in human HCT-116 cells assessed as suppression of wound closure at 20 nM incubated for 48 hrs by wound healing assay relative to control; format: functional
[26] = tested on: HCT-116; assay: Induction of cell cycle arrest in human HCT-116 cells assessed as G1 phase cells at 40 nM measured after 48 hrs by propidium iodide/RNase staining based flow cytometry analysis (reference value: 61.51 %); format: functional
[27] = tested on: HCT-116; assay: Induction of cell cycle arrest in human HCT-116 cells assessed as G1 phase cells at 80 nM measured after 48 hrs by propidium iodide/RNase staining based flow cytometry analysis (reference value: 61.51 %); format: functional
[28] = tested on: HCT-116; assay: Induction of cell cycle arrest in human HCT-116 cells assessed as S phase cells at 80 nM measured after 48 hrs by propidium iodide/RNase staining based flow cytometry analysis (reference value: […] %); format: functional

Sequence of Tubulin (Sus scrofa) (P02550 whole entry, looked up): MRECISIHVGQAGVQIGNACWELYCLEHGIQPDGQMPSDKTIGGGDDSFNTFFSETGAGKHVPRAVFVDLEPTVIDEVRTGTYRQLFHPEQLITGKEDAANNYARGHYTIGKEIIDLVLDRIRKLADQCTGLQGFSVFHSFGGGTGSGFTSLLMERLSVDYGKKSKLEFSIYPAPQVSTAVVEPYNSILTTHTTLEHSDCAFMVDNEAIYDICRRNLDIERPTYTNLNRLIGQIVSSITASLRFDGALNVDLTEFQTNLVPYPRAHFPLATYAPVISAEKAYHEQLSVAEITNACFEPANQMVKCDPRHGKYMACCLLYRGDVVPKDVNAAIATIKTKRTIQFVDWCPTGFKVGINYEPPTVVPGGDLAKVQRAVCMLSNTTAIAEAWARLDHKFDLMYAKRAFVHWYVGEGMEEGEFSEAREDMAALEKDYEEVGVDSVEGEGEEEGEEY
Sequence of Tubulin (Sus scrofa) (P02554 whole entry, looked up): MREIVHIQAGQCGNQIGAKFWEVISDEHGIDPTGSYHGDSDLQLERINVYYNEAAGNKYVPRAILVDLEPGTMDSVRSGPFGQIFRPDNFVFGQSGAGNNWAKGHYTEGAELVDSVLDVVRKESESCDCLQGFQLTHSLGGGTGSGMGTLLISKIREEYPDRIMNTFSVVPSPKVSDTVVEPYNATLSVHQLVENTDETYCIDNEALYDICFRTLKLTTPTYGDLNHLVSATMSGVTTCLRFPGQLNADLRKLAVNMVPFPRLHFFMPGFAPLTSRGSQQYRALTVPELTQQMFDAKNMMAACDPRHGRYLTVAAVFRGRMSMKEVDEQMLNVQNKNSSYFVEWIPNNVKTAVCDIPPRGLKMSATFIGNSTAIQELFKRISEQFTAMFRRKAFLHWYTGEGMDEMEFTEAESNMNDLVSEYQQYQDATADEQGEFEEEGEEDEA

COc1ccc(-c2cn3ccnc(-c4cc(OC)c(OC)c(OC)c4)c3n2)cc1N
IC50 [1]: 0.309 µM | IC50 [2]: 122 nM | IC50 [3]: 0.111 µM | IC50 [4]: 123 nM

COc1cc(C(=O)c2cn3ccnc(-c4ccc(C)cc4)c3n2)cc(OC)c1OC
IC50 [1]: 7.9 µM | IC50 [2]: > 10000 nM | IC50 [3]: > 10 µM | IC50 [4]: > 10000 nM

COc1cc(-c2nccn3cc(-c4ccc(F)cc4)nc23)cc(OC)c1OC
IC50 [1]: 0.137 µM | IC50 [2]: 263 nM | IC50 [3]: 0.401 µM | IC50 [4]: 217 nM

COc1cc(-c2nccn3cc(-c4ccc(C)cc4)nc23)cc(OC)c1OC
IC50 [1]: 0.135 µM | IC50 [2]: 74 nM | IC50 [3]: 0.053 µM | IC50 [4]: 160 nM

COc1cc(C(=O)c2cn3ccnc(-c4ccc(F)cc4)c3n2)cc(OC)c1OC
IC50 [1]: > 10 µM | IC50 [2]: > 10000 nM | IC50 [3]: > 10 µM | IC50 [4]: > 10000 nM

COc1cc(-c2nccn3cc(-c4ccc5[nH]ccc5c4)nc23)cc(OC)c1OC
Activity [5]: 6.25% | IC50 [1]: 0.154 µM | Activity [6]: 79.67% | inhibition at 0.04 µM [7]: 56.8% | Activity [8]: 37.2% | Activity [9]: 8.17% | Activity [10]: Active | inhibition at 0.01 µM [11]: 30.8% | Activity [12]: 50.07% | IC50 [13]: 45.7 µM | inhibition [14]: Dde | Activity [15]: 21.11% | Activity [16]: 17.6% | Activity [17]: 12.16% | Activity [18]: 17.47% | IC50 [2]: 23 nM | Activity [19]: Active | IC50 [3]: 0.074 µM | inhibition at 0.08 µM [20]: 60.6% | Activity [21]: 21.98% | Activity [22]: 61.42% | Activity [23]: 79.23% | Activity [24]: 29.53% | inhibition at 0.02 µM [25]: 55% | Activity [26]: 60.42% | Activity [27]: 11.9% | Activity [28]: 8.87% | IC50 [4]: 146 nM

COc1ccc(-c2cn3ccnc(-c4cc(OC)c(OC)c(OC)c4)c3n2)cc1[N+](=O)[O-]
IC50 [1]: > 10 µM | IC50 [2]: > 10000 nM | IC50 [3]: > 10 µM | IC50 [4]: > 10000 nM

COc1cc(C(=O)c2cn3ccc(C)c([N+](=O)[O-])c3n2)cc(OC)c1OC
IC50 [1]: > 10 µM | IC50 [2]: > 10000 nM | IC50 [3]: > 10 µM | IC50 [4]: > 10000 nM

COc1ccc(-c2cn3ccnc(-c4cc(OC)c(OC)c(OC)c4)c3n2)cc1
IC50 [1]: 0.457 µM | IC50 [2]: 191 nM | IC50 [3]: 0.105 µM | IC50 [4]: 205 nM

COc1ccc(-c2cn3ccnc(-c4cc(OC)c(OC)c(OC)c4)c3n2)cc1O
IC50 [1]: > 10 µM | IC50 [2]: 74 nM | IC50 [3]: > 10 µM | IC50 [4]: 87 nM

COc1cc(-c2nccn3cc(-c4ccc(N)cc4)nc23)cc(OC)c1OC
IC50 [1]: 0.287 µM | IC50 [2]: 158 nM | IC50 [3]: 0.294 µM | IC50 [4]: 252 nM

COc1ccn2cc(C(=O)c3cc(OC)c(OC)c(OC)c3)nc2c1
IC50 [1]: > 10 µM | IC50 [2]: 6520 nM | IC50 [3]: > 10 µM | IC50 [4]: 4140 nM

COc1cc(C(=O)c2cn3c(C(C)C)cccc3n2)cc(OC)c1OC
IC50 [1]: > 10 µM | IC50 [2]: > 10000 nM | IC50 [3]: > 10 µM | IC50 [4]: > 10000 nM

COc1cc2c(c(OC)c1OC)-c1ccc(OC)c(=O)cc1[C@@H](NC(C)=O)CC2 [COLCHICINE]
IC50 [1]: 0.184 µM | Activity [15]: 60.81% | Activity [18]: 15.12% | IC50 [2]: 11 nM | IC50 [3]: 0.176 µM | Activity [22]: 24.07% | IC50 [4]: 54 nM

COc1cc(-c2nccn3cc(-c4ccc(O)cc4)nc23)cc(OC)c1OC
IC50 [1]: > 10 µM | IC50 [2]: 901 nM | IC50 [3]: > 10 µM | IC50 [4]: 823 nM

COc1cc(-c2nccn3cc(-c4ccccc4)nc23)cc(OC)c1OC
IC50 [1]: 0.378 µM | IC50 [2]: 266 nM | IC50 [3]: 0.364 µM | IC50 [4]: 267 nM

COc1cc(C(=O)c2cn3cc(Cl)cc(C(F)(F)F)c3n2)cc(OC)c1OC
IC50 [1]: > 10 µM | IC50 [2]: > 10000 nM | IC50 [3]: > 10 µM | IC50 [4]: > 10000 nM

COc1cc(C(=O)c2cn3cc(Br)nc(Cl)c3n2)cc(OC)c1OC
IC50 [1]: 8.26 µM | IC50 [2]: 1620 nM | IC50 [3]: 6.77 µM | IC50 [4]: 5120 nM

COc1cc(-c2nccn3cc(-c4ccc(Cl)cc4)nc23)cc(OC)c1OC
IC50 [1]: 7.29 µM | IC50 [2]: 351 nM | IC50 [3]: 2.09 µM | IC50 [4]: 475 nM

COc1cc(-c2nccn3cc(-c4ccc(C(F)(F)F)cc4)nc23)cc(OC)c1OC
IC50 [1]: > 10 µM | IC50 [2]: > 10000 nM | IC50 [3]: > 10 µM | IC50 [4]: 2630 nM

COc1cc(C(=O)c2cn3ccnc(-c4ccc5[nH]ccc5c4)c3n2)cc(OC)c1OC
IC50 [1]: > 10 µM | IC50 [2]: 689 nM | IC50 [3]: > 10 µM | IC50 [4]: > 10000 nM

COc1cc(-c2nccn3cc(-c4ccc([N+](=O)[O-])cc4)nc23)cc(OC)c1OC
IC50 [1]: > 10 µM | IC50 [2]: > 10000 nM | IC50 [3]: > 10 µM | IC50 [4]: > 10000 nM

COc1cc(C(=O)c2cn3ccc(F)cc3n2)cc(OC)c1OC
IC50 [1]: > 10 µM | IC50 [2]: > 10000 nM | IC50 [3]: > 10 µM | IC50 [4]: > 10000 nM

COc1cc(C(=O)c2cn3ccc(C)cc3n2)cc(OC)c1OC
IC50 [1]: > 10 µM | IC50 [2]: 3060 nM | IC50 [3]: 9.28 µM | IC50 [4]: 6700 nM

COc1cc(C(=O)c2cn3ccnc(-c4ccccc4)c3n2)cc(OC)c1OC
IC50 [1]: 3.94 µM | IC50 [2]: 1940 nM | IC50 [3]: > 10 µM | IC50 [4]: > 10000 nM

COc1cc(C(=O)c2cn3ccc(C(F)(F)F)cc3n2)cc(OC)c1OC
IC50 [1]: > 10 µM | IC50 [2]: > 10000 nM | IC50 [3]: > 10 µM | IC50 [4]: > 10000 nM

Source: ChEMBL document CHEMBL5150065, “Design, synthesis, and bioevaluation of imidazo [1,2-a] pyrazine derivatives as tubulin polymerization inhibitors with potent anticancer activities” (Bioorg Med Chem, 2022)
